Source: the supplement of paper PMC7695840
Values joined by “and” are separate entries in the source; they are usually repeats but may differ in a detail not shown here. Identical values can stand only once.

How the values were obtained:
[1] = system: Staphylococcus aureus MW2 delta-mecA (mecA-); assay: IC50 (growth, competition assay); details: cefoxitin: subinhibitory
In short: (§1)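 Two fluorescent S. aureus MW2 strains, one carrying and one lacking the resistance gene, were pre-induced, mixed 1:1 and grown unshaken in LB in 1536-well plates for 20 h at 37 °C and 90% humidity with a subinhibitory drug dose set each day. Compounds were tested on five- or nine-point 2-fold gradients in two dye-swapped replicates. DsRed (540/590) and GFP (485/520) signals were scaled per plate between the medians of single-strain controls, and No Treatment was then set to 0.5. For each strain, IC50 was taken as the dose that halved the No Treatment signal, or else the maximal signal.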

[2] = system: Staphylococcus aureus MW2 (mecA+); assay: IC50 (growth, competition assay); details: cefoxitin: subinhibitory
In short: as §1

| SMILES | IC50 ([1]; fluorescent label: DsRed) | IC50 ([1]; fluorescent label: GFP) [µM] | IC50 ([2]; fluorescent label: DsRed) | IC50 ([2]; fluorescent label: GFP) |
| --- | --- | --- | --- | --- |
| COc1cc(NS(C)(=O)=O)ccc1Nc1c2ccccc2nc2ccccc12 [AMSIDYL] | < 9.85 µM | < 9.85 | 74.3 µM | 76.1 µM |
| C=CC(C1=CC(=O)C(OC)=CC1=O)c1ccccc1 (stereo unspecified) [4-METHOXYDALBERGIONE] | < 9.85 µM | 13.3 | 59.4 µM | 63.4 µM |
| CC(=O)NC[C@H]1CN(c2ccc(N3CCOCC3)c(F)c2)C(=O)O1 [Linezolid (Zyvox)] | 0.992 µM | < 0.498 | 2.31 µM | 2.83 µM |
| Cc1cnc(-c2ccccc2C(C)C)nc1NCc1ccc(-n2ccnn2)cc1 [ML323] | < 9.85 µM | < 9.85 | 35.3 µM | 49.6 µM |
| Cc1coc2c1C(=O)C(=O)c1c-2ccc2c1CCCC2(C)C [Tanshinone IIA (Tanshinone B)] | 3.7 µM and 13.9 µM |  | 7.87 µM and 35.3 µM | 41.1 µM and 32.8 µM |
| OC(c1cc(C(F)(F)F)nc2c(C(F)(F)F)cccc12)C1CCCCN1 (stereo unspecified) [LARIAM] | < 9.85 µM | < 9.85 | < 9.85 µM | < 9.85 µM |
| NC(=O)c1cc[n+](CC2=C(C(=O)[O-])N3C(=O)[C@@H](NC(=O)Cc4cccs4)[C@H]3SC2)cc1 [CEFALONIUM] | < 9.85 µM | < 9.85 | 17.5 µM | 15.3 µM |
| CN[C@H]1CC[C@@H](c2ccc(Cl)c(Cl)c2)c2ccccc21 [ZOLOFT] | 31.1 µM | 15.5 | 103 µM | 106 µM |
